Measurements reported in patent publication US6500959B1, “Pyrrolidine derivatives and processes for preparing same” (GPI NIL Holdings, Inc., priority 1995, dated 2002).
“Also recorded” adds a separate entry of the source. Where two headings read alike, the source gives them in different places.

What was measured:
[1] = system: chick dorsal root ganglia; assay: Chick dorsal root ganglion cultures and neurite outgrowth; format: cell-based; conditions: read-out: ED50, neurite outgrowth
Source text: (§1) Forty-eight hours later, the number of neurite with a length greater than one DRG explant was quantitated. The number of neurites expressed in untreated DRG's was subtracted from the neurite number of Example 17—treated samples to yield Example 17—dependent specific neurite outgrowth.
as §1, with “form” for “from”, “outgrowth. Quantitative dose-dependent neurite outgrowth elicited by Example 17 is presented.” for “outgrowth.”
Dorsal root ganglia were dissected from chick embryos of ten day gestation. Whole ganglion explants were cultured on thin layer Matrigel-coated 12 well plates with Liebovitz L15 plus high glucose media supplemented with 2 mM glutamine and 10% fetal calf serum, and also containing 10 μM cytosine β-D arabinofuranoside (Ara C) at 37° C. in an environment containing 5% CO2. Twenty-four hours later, the DRGs were treated with various concentrations of nerve growth factor, immunophilin ligands or combinations of NFG plus drugs. Forty-eight hours after drug treatment, the ganglia were visualized under phase contrast or Hoffman Modulation contrast with a Zeiss Axiovert inverted microscope. Photomicrographs of the explants were made, and neurite outgrowth was quantitated. Neurites longer than the DRG diameter were counted as positive, with total number of neurites quantitated per each experimental condition. Three to four DRGs are cultured per well, and each treatment was performed in duplicate.

sciatic nerve = assay: Sciatic nerve axotomy (crush), axon number and myelination; format: in vivo, Sprague-Dawley rats
Source text: FIGS. 3A-3D are photomicrographs of rat […] sections. […] Sciatic nerves of 150 g male Sprague-Dawley rats were crushed at the level of the hips. […] Animals were sacrificed, sciatic nerves removed and nerve segments 2 mm distal to the crush site were sectioned and stained with Holmes silver stain (to assess axon number) and Luxol fast blue (to assess remyelination). The micrographs show sciatic nerve sections of sham operated rats, vehicle-treated lesioned animals. […] Six-week old male Sprague-Dawley rats were anesthetized, and the sciatic nerve exposed and crushed, at the level of the hip, by forceps. Test compounds or vehicle were administered subcutaneously just prior to the lesion and daily for the following 18 days. Sections of the sciatic nerve were stained with Holmes silver stain to quantify the number of axons, and Luxol fast blue to quantify the level of myelination. […] “Sham” denotes control animals that received vehicle but were not lesioned; “Vehicle” denotes animals that were lesioned and received only vehicle (i.e., no drug).

FKBP = FKBP (Homo sapiens, UniProt P62942); assay: Ki test procedure: inhibition of peptidyl-prolyl isomerase (rotamase) activity, chymotrypsin-coupled assay; format: biochemical; conditions: apparent Ki
Experimental: The inhibition of this reaction caused by the addition of different concentrations of inhibitor is determined, and the data is analyzed as a change in first-order rate constant as a function of inhibitor concentration to yield the apparent Ki values.
In a plastic cuvette are added […] of ice cold assay buffer (25 mM HEPES, pH 7.8, 100 mM NaCl), […] of FKBP (2.5 mM in 10 mM Tris-Cl pH 7.5, 100 mM NaCl, 1 mM dithiothreitol), […] of chymotrypsin (50 mg/ml in 1 mM HCl) and […] of test compound at various concentrations in dimethyl sulfoxide.

[2] = 30 mg/kg s.c., just prior to lesion and daily for 18 days
[3] = chick DRG explants, 48 h after drug treatment

Chain of FKBP (P62942 whole entry): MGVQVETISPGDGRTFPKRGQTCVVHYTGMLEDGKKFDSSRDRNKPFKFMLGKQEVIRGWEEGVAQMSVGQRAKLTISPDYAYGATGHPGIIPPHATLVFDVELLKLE

SMILES: CCC(C)(C)C(=O)C(=O)N1CCC[C@H]1C(=O)OCCCc1ccccc1 [Example 1, 3-phenyl-1-propyl (2S)-1-(3,3-dimethyl-1,2-dioxopentyl)-2-pyrrolidinecarboxylate]
- EC50 ([1]; Gallus gallus, 48 h): 53 nM
- axon number, decrease as compared to non-lesioned control (sciatic nerve; [2]): 5%
- degree of myelination, decrease as compared to control (sciatic nerve; [2]): 50%
- neuronal regeneration, appearance of sciatic nerve sections (sciatic nerve; 30 mg/kg s.c., compared with sham and vehicle-treated lesioned animals): striking similarity to the sham treated animals; also recorded: promotes neuronal regeneration following sciatic nerve lesions
- Axon Number (% Control) (sciatic nerve; lesioned rats, 30 mg/kg s.c. daily, Holmes silver stain): 100 % Control
- Myelin Level (sciatic nerve; lesioned rats, 30 mg/kg s.c. daily, Luxol fast blue, Sham = 100): 50

SMILES: CCC(C)(C)C(=O)C(=O)N1CCC[C@H]1C(=O)OC/C=C/c1ccccc1 [Example 2, 3-phenyl-1-prop-2-(E)-enyl (2S)-1-(3,3-dimethyl-1,2-dioxopentyl)-2-pyrrolidinecarboxylate]
- Ki (FKBP): 125 nM
- EC50 ([1]; Gallus gallus, 48 h): 105 nM

SMILES: CCC(C)(C)C(=O)C(=O)N1CCC[C@H]1C(=O)OCCCc1cc(OC)c(OC)c(OC)c1 [Example 3, 3-(3,4,5-trimethoxyphenyl)-1-propyl (2S)-1-(3,3-dimethyl-1,2-dioxopentyl)-2-pyrrolidine-carboxylate]
- EC50 ([1]; Gallus gallus, 48 h): 149 nM

SMILES: CCC(C)(C)C(=O)C(=O)N1CCC[C@H]1C(=O)OC/C=C/c1cc(OC)c(OC)c(OC)c1 [Example 4, 3-(3,4,5-trimethoxyphenyl)-1-prop-2-(E)-enyl (2S)-1-(3,3-dimethyl-1,2-dioxopentyl)-2-pyrrolidine carboxylate]
- Ki (FKBP): 65 nM
- EC50 ([1]; Gallus gallus, 48 h): 190 nM

SMILES: CCC(C)(C)C(=O)C(=O)N1CCC[C@H]1C(=O)OCCCc1ccc2c(c1)OCO2 [Example 5]
- Ki (FKBP): 170 nM
- EC50 [1, 3]: 10 nM

SMILES: CCC(C)(C)C(=O)C(=O)N1CCC[C@H]1C(=O)OC/C=C/c1ccc2c(c1)OCO2 [Example 6, 3-(4,5-methylenedioxyphenyl)-1-prop-2-(E)-enyl (2S)-1-(3,3-dimethyl-1,2-dioxopentyl)-2-pyrrolidinecarboxylate]
- Ki (FKBP): 160 nM
- EC50 ([1]; Gallus gallus, 48 h): 75 nM

SMILES: CCC(C)(C)C(=O)C(=O)N1CCC[C@H]1C(=O)OC/C=C/C1CCCCC1 [Example 8, 3-cyclohexyl-1-prop-2-(E)-enyl (2S)-1-(3,3-dimethyl-1,2-dioxopentyl)-2-pyrrolidinecarboxylate]
- Ki (FKBP): 600 nM

SMILES: O=C(C(=O)N1CCC[C@H]1C(=O)OCCCc1ccccc1)c1ccco1 [Example 10, 3-phenyl-1-propyl (2S)-1-(1,2-dioxo-2-[2-furanyl])ethyl-2-pyrrolidinecarboxylate]
- Ki (FKBP): 4000 nM
- EC50 ([1]; Gallus gallus, 48 h): 0.46 nM

SMILES: O=C(C(=O)N1CCC[C@H]1C(=O)OCCCc1ccccc1)c1cccs1 [Example 11, 3-phenyl-1-propyl (2S)-1-(1,2-dioxo-2-[2-thienyl])ethyl-2-pyrrolidinecarboxylate]
- Ki (FKBP): 92 nM
- EC50 ([1]; Gallus gallus, 48 h): 0.015 nM

SMILES: O=C(C(=O)N1CCC[C@H]1C(=O)OCCCc1ccccc1)c1nccs1 [Example 12, 3-phenyl-1-propyl (2S)-1-(1,2-dioxo-2-[2-thiazolyl])ethyl-2-pyrrolidinecarboxylate]
- Ki (FKBP): 100 nM

SMILES: O=C(C(=O)N1CCC[C@H]1C(=O)OCCCc1ccccc1)c1ccccc1 [Example 13, 3-phenyl-1-propyl (2S)-1-(1,2-dioxo-2-phenyl)ethyl-2-pyrrolidinecarboxylate]
- Ki (FKBP): 1970 nM

SMILES: CCC(C)(C)C(=O)C(=O)N1CCC[C@H]1C(=O)OCCCc1cc(OC)ccc1OC [Example 14, 3-(2,5-dimethoxyphenyl)-1-propyl (2S)-1-(3,3-dimethyl-1,2-dioxopentyl)-2-pyrrolidine-carboxylate]
- EC50 ([1]; Gallus gallus, 48 h): 2 nM

SMILES: CCC(C)(C)C(=O)C(=O)N1CCC[C@H]1C(=O)OC/C=C/c1cc(OC)ccc1OC [Example 15, 3-(2,5-dimethoxyphenyl)-1-prop-2-(E)-enyl (2S)-1-(3,3-dimethyl-1,2-dioxopentyl)-2-pyrrolidine-carboxylate]
- Ki (FKBP): 450 nM
- EC50 ([1]; Gallus gallus, 48 h): 0.8 nM

SMILES: CCC(C)(C)C(=O)C(=O)N1CCC[C@H]1C(=O)OCCc1cc(OC)c(OC)c(OC)c1 [Example 16, 2-(3,4,5-trimethoxyphenyl)-1-ethyl (2S)-1-(3,3-dimethyl-1,2-dioxopentyl)-2-pyrrolidine-carboxylate]
- EC50 ([1]; Gallus gallus, 48 h): 0.015 nM

SMILES: CCC(C)(C)C(=O)C(=O)N1CCC[C@H]1C(=O)OCCCc1ccccn1 [Example 18, 3-(2-Pyridyl)-1-propyl (2S)-1-(3,3-dimethyl-1,2-dioxopentyl)-2-pyrrolidinecarboxylate]
- EC50 ([1]; Gallus gallus, 48 h): 30 nM

SMILES: CCC(C)(C)C(=O)C(=O)N1CCC[C@H]1C(=O)OCCCc1ccncc1 [Example 19, 3-(4-Pyridyl)-1-propyl (2S)-1-(3,3-dimethyl-1,2-dioxopentyl)-2-pyrrolidinecarboxylate]
- EC50 ([1]; Gallus gallus, 48 h): 6 nM

SMILES: O=C(C(=O)N1CCC[C@H]1C(=O)OC(CCc1ccccc1)c1ccccc1)C1CCCCC1 (stereo partly drawn) [Example 20, 3-phenyl-1-phenyl-1-propyl (2S)-1-(2-cyclohexyl-1,2-dioxoethyl)-2-pyrrolidinecarboxylate]
- Ki (FKBP): 82 nM
- EC50 [1, 3]: 0.13 nM

SMILES: CC(C)(C)C(=O)C(=O)N1CCC[C@H]1C(=O)OCCCc1ccccc1 [Example 21, 3-phenyl-1-propyl (2S)-1-(2-tert-butyl-1,2-dioxoethyl)-2-pyrrolidinecarboxylate]
- EC50 ([1]; Gallus gallus, 48 h): 0.025 nM

SMILES: O=C(CCC1CCCCC1)C(=O)N1CCC[C@H]1C(=O)OCCCc1ccccc1 [Example 22, 3-phenyl-1-propyl (2S)-1-(2-cyclohexyl-ethyl-1,2-dioxoethyl)-2-pyrrolidinecarboxylate]
- EC50 ([1]; Gallus gallus, 48 h): 0.66 nM

SMILES: O=C(CCC1CCCCC1)C(=O)N1CCC[C@H]1C(=O)OCCCc1cccnc1 [Example 23, 3-(3-pyridyl)-1-propyl (2S)-1-(2-cyclohexylethyl-1,2-dioxoethyl)-2-pyrrolidinecarboxylate]
- EC50 ([1]; Gallus gallus, 48 h): 1100 nM

SMILES: CC(C)(C)C(=O)C(=O)N1CCC[C@H]1C(=O)OCCCc1cccnc1 [Example 24, 3-(3-pyridyl)-1-propyl (2S)-1-(2-tert-butyl-1,2-dioxoethyl)-2-pyrrolidinecarboxylate]
- EC50 ([1]; Gallus gallus, 48 h): 0.014 nM

SMILES: CCC(C)(C)C(=O)C(=O)N1CCC[C@H]1C(=O)OCCC(c1ccccc1)c1ccccc1 [Example 25, 3,3-diphenyl-1-propyl (2S)-1-(3,3-dimethyl-1,2-dioxopentyl)-2-pyrrolidinecarboxylate]
- EC50 ([1]; Gallus gallus, 48 h): 0.5 nM

SMILES: O=C(C(=O)N1CCC[C@H]1C(=O)OCCCc1cccnc1)C1CCCCC1 [Example 26, 3-(3-pyridyl)-1-propyl (2S)-1-(2-cyclohexyl-1,2-dioxoethyl)-2-pyrrolidinecarboxylate]
- EC50 ([1]; Gallus gallus, 48 h): 2 nM

SMILES: O=C(C(=O)N1CCC[C@H]1C(=O)OCCCc1cccnc1)c1cccs1 [Example 27, 3-(3-Pyridyl)-1-propyl (2S)-N-([2-thienyl]glyoxyl)pyrrolidinecarboxylate]
- Ki (FKBP): 1000 nM
- EC50 ([1]; Gallus gallus, 48 h): 500 nM

SMILES: CC(C)(C)C(=O)C(=O)N1CCC[C@H]1C(=O)OCCC(c1ccccc1)c1ccccc1 [Example 28, 3,3-Diphenyl-1-propyl (2S)-1-(3,3-dimethyl-1,2-dioxobutyl)-2-pyrrolidinecarboxylate]
- EC50 ([1]; Gallus gallus, 48 h): 0.5 nM

SMILES: O=C(C(=O)N1CCC[C@H]1C(=O)OCCC(c1ccccc1)c1ccccc1)C1CCCCC1 [Example 29, 3,3-Diphenyl-1-propyl (2S)-1-cyclohexyl glyoxyl-2-pyrrolidinecarboxylate]
- Ki (FKBP): 20 nM
- EC50 ([1]; Gallus gallus, 48 h): 10 nM

SMILES: O=C(C(=O)N1CCC[C@H]1C(=O)OCCC(c1ccccc1)c1ccccc1)c1cccs1 [Example 30, 3,3-Diphenyl-1-propyl (2S)-1-(2-thienyl) glyoxyl-2-pyrrolidinecarboxylate]
- Ki (FKBP): 150 nM
- EC50 ([1]; Gallus gallus, 48 h): 100 nM
